Publication PMC13308190, “Endothelial progenitor cell susceptibility to DNA damaging and DDR-modulating compounds determines endothelial differentiation accuracy” (Stem Cell Research & Therapy, 2026)

What was measured:
Type in all cases: cell-based, mouse
EC d4 [1] = experiment: VE-cadherin cell-cell junction immunostaining; conditions: EC d4 treated 48 h
mESC = experiment: AlamarBlue cell viability; conditions: Mus musculus
Method: (§1) Drug-induced cytotoxicity was monitored by analyzing cell viability using the AlamarBlue assay, which measures the reduction of the non-fluorescent dye resazurin (Sigma [Steinheim, Germany]) to fluorescent resorufin by living (i.e. metabolically active) cells. Fluorescence was measured in quadruplicates (excitation: 535 nm, emission: 590 nm (Tecan infinite 200, Tecan, Männedorf, Switzerland)). Relative cell viability of the untreated control was set to 100%.

[2] = tested on: EC d4 (endothelial progenitor cells); experiment: AlamarBlue cell viability; conditions: 48 h treatment
Method: as §1

EC d6 = experiment: Mitochondrial membrane potential (TMRM-MitoTracker Green); conditions: EC d6 treated 24 h
Method: Mitochondrial membrane potential (ΔΨm) was analyzed by live-cell imaging using TMRM-MitoTracker Green co-staining. Cells were seeded and differentiated on Poly-D-Lysine-fibronectine-coated live-imaging dishes. For staining, cells were incubated with 200nM MitoTracker Green (Invitrogen) and 50 nM TMRM (Invitrogen) in DMEM (30 min, 37 °C, 5% CO2). After washing with PBS, live-cell microscopy was performed using a spinning disc confocal microscope (PerkinElmer) equipped with a 60x oil-immersion objective (N.A = 1.49) and a Hamamatsu C9100 camera (1000 × 1000 pixel) (excitation (MitoTracker Green): 488 nm, excitation (TMRM): 561 nm). The cells were kept at 37 °C in OptiMEM supplemented with 10 mM HEPES during imaging. The images were obtained at emission wavelength of 527 nm (W55) and 615 nm (W70) for 488 nm and 561 nm excitation, respectively.

[3] = tested on: EC d4 (endothelial progenitor cells); experiment: RT-qPCR mRNA expression; conditions: for Ccl2 mRNA / Icam-1 mRNA / Vcam-1 mRNA / eNos mRNA / iNos mRNA: Fig 8D; for Cdkn1a mRNA / Cdkn2a mRNA / Glb1 mRNA / Il6 mRNA / Il8 mRNA / Tp53 mRNA: Fig 7B
Method: Total RNA was purified using the RNeasy Mini Kit (Qiagen, Hilden, Germany). Reverse transcriptase (RT) reaction was performed with the HighCapacity cDNA Reverse Transcription Kit (Applied Biosystems, Darmstadt, Germany) using 900–2000 ng of RNA. Quantitative RT-qPCR analysis was performed using following conditions: (1) 95 °C–10 min; (2) 45 amplification cycles with 95 °C–15 s, 55 °C–15 s, and 72 °C–17 s; (3) 95 °C–1 min, 55 °C–1 min, 65 °C–5 s. If not stated otherwise, analyses were performed in technical triplicates using pooled samples from two independent experiments (each performed with biological duplicates) by use of a CFX96 cycler (BioRad) and the SensiMix SYBR Kit (Bioline, London, UK). The primers used for mRNA expression analyses are listed in Supplementary Table 1. To ensure the specificity of the amplification product, melting curves were recorded at the end of the run. mRNA expression levels were normalized to β-Actin and Gapdh. Relative mRNA expression in mESC or corresponding untreated controls was set to 1.0. Only changes in gene expression of ≤ 0.5- and ≥ 2-fold were considered as biologically relevant.
To monitor prototypical functions of endothelial cells, the uptake of fluorescent 1,1-dioctadecyl-3,3,3,3-tetra-methylindocarbocyanine-labeled acetylated LDL (Dil-acLDL) was examined. Briefly, cells were incubated with Dil-acLDL (10 µg/ml, 4 h, 37 °C). After fixation (3.7% cold formaldehyde/PBS (15 min, RT) nuclei were counterstained with DAPI. The uptake of DiI-acLDL was analyzed by fluorescence microscopy (Olympus BX43, 20x objective). Additionally, the response of differentiated EC to inflammatory cytokines was measured. After treatment with a pro-inflammatory cytokine mixture (TNFα/IL-1β, 10 ng/mL) for 1 h, mRNA expression of activated EC markers E-selectin, Icam-1, Vcam-1, Ccl2, eNos, iNos was analyzed (RT-qPCR).

EC d4 [4] = experiment: ZO1 tight junction immunofluorescence; conditions: EC d4 treated 48 h
EC d4 [5] = experiment: EdU incorporation (S-phase activity); conditions: EC d4 48 h
Method: S-phase activity of cells was monitored by measuring EdU incorporation using the EdU-Click 488 assay according to the manufacturer’s protocol. Briefly, cells were pulse-treated with 5-ethynyl-2′-deoxyuridine (EdU) for 3 h. Alexa Fluor 488-conjugated reaction cocktail was added (30 min, RT) and nuclei were counterstained with DAPI. The percentage of EdU-positive area/DAPI-positive area was calculated by fluorescence microscopy (Olympus BX43, 20x objective).

[6] = EC d4 + 0.5 µM 48 h, analysed in EC d6
[7] = EC d4 + 0.5 µM 48 h, then + I/T (IL-1β/TNFα 10 ng/ml, 1 h)
[8] = EC d4 + 1 µM 48 h, analysed day 6, Fig 1C
[9] = EC d4 + 1 µM 48 h, analysed in EC d6
[10] = EC d4 + 1 µM 48 h, then + I/T (IL-1β/TNFα 10 ng/ml, 1 h)

## Nc1ccccc1NC(=O)c1ccc(CNC(=O)OCc2cccnc2)cc1 [EST, entinostat]
EC d4 [1]
  VE-cadherin cell-cell junctions in EC d6 differentiated from treated EC d4: did not trigger defects
mESC; 24 h treatment
  IC50: 18.8 µM
mESC; 72 h treatment
  IC50: 2.6 µM
[2]
  susceptibility (cell viability) of EC d4 as compared to both mESC and EC d6: significant higher
EC d6
  mitochondrial membrane potential: remained largely unaffected
[3]; [6]
  Ccl2 mRNA: 4.20 Fold of untreated control
  Icam-1 mRNA: 6.04 Fold of untreated control
  Vcam-1 mRNA: 0.80 Fold of untreated control
  eNos mRNA: 156.02 Fold of untreated control
  iNos mRNA: 4.21 Fold of untreated control
[3]; [7]
  Ccl2 mRNA: 454.50 Fold of untreated control
  Icam-1 mRNA: 26.69 Fold of untreated control
  Vcam-1 mRNA: 1.68 Fold of untreated control
  eNos mRNA: 165.80 Fold of untreated control
  iNos mRNA: 4.06 Fold of untreated control
[3]; EC d4 + 0.5 µM 48 h
  Cdkn1a mRNA: 1.59 Fold of untreated control
  Cdkn2a mRNA: 1.29 Fold of untreated control
  Glb1 mRNA: 1.41 Fold of untreated control
  Il6 mRNA: 0.99 Fold of untreated control
  Il8 mRNA: 0.80 Fold of untreated control
  Tp53 mRNA: 1.018 Fold of untreated control
[3]; [8]
  Flk1 mRNA: 19.60 Fold of mESC
  Nanog mRNA: 0.05 Fold of mESC
  Oct4 mRNA: 0.05 Fold of mESC
  Pecam1 mRNA: 1.30 Fold of mESC
  VE-cad mRNA: 858.76 Fold of mESC
[3]; [9]
  Ccl2 mRNA: 0.90 Fold of untreated control
  Icam-1 mRNA: 5.21 Fold of untreated control
  Vcam-1 mRNA: 0.49 Fold of untreated control
  eNos mRNA: 58.94 Fold of untreated control
[3]; [10]
  Ccl2 mRNA: 132.23 Fold of untreated control
  Icam-1 mRNA: 19.80 Fold of untreated control
  Vcam-1 mRNA: 1.55 Fold of untreated control
  eNos mRNA: 53.06 Fold of untreated control
  iNos mRNA: 1.30 Fold of untreated control
[3]; EC d4 + 1 µM 48 h, Fig 5C
  Brca1 mRNA: 0.32 Fold of mESC
  Chk1 mRNA: 0.51 Fold of mESC
  Rad51 mRNA: 0.26 Fold of mESC
[3]; EC d4 + 1 µM 48 h, Fig 6D
  Pgc1a mRNA: 0.21 Fold of untreated control
[3]; EC d4 + 1 µM 48 h
  Cdkn1a mRNA: 1.62 Fold of untreated control
  Cdkn2a mRNA: 1.49 Fold of untreated control
  Glb1 mRNA: 1.61 Fold of untreated control
  Il6 mRNA: 1.09 Fold of untreated control
  Il8 mRNA: 0.57 Fold of untreated control
  Tp53 mRNA: 0.99 Fold of untreated control
[3]; EC d4 + 1 µM 48 h, Fig 8C
  Cldn5 mRNA: 0.55 Fold of EC d4 or d6
  Ocln mRNA: 1.06 Fold of EC d4 or d6
  Tjp1 mRNA: 1.56 Fold of EC d4 or d6
[3]; EC d4 + 1 µM 48 h, Fig 8F
  Ldlr mRNA: 0.66 Fold of untreated control
EC d4 [4]
  ZO1 containing tight junctions in EC d6 differentiated from treated EC d4: did not affect
EC d4 [5]
  S-phase activity (EdU-positive cells): not
